Assay results: ChEMBL document CHEMBL3576844, “Melanin-concentrating hormone receptor 1 antagonists for treatment of obesity” (ACS Med Chem Lett, 2015)

Key:
[1] = target: Melanin-concentrating hormone receptor 1 (Homo sapiens) (UniProt Q99705); assay: Antagonist activity at human MCH1 receptor expressed in CHO cell membranes assessed as inhibition of MCH (4 to 19)-stimulated calcium mobilization at 0.1 uM measured every 2 secs by fluorometric analysis relative to control; assay type: functional, cell-based
Melanin-concentrating hormone receptor 1 (Homo sapiens), sequence (Q99705 whole entry): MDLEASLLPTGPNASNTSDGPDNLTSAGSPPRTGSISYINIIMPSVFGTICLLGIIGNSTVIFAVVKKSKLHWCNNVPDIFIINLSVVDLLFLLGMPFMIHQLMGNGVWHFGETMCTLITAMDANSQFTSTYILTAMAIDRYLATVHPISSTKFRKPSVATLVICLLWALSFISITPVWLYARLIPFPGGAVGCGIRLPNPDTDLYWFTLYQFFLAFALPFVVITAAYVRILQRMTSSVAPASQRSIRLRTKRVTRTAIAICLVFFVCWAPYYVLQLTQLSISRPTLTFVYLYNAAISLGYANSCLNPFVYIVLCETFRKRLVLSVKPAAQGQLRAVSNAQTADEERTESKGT

[2] = target: hERG (KCNH2) (Homo sapiens, UniProt Q12809); assay: Inhibition of human ERG expressed in CHO cells at 10 uM after 5 mins by IonWorks assay relative to control; conditions: CHO cells expressing human ERG
hERG (KCNH2), sequence (Q12809 whole entry): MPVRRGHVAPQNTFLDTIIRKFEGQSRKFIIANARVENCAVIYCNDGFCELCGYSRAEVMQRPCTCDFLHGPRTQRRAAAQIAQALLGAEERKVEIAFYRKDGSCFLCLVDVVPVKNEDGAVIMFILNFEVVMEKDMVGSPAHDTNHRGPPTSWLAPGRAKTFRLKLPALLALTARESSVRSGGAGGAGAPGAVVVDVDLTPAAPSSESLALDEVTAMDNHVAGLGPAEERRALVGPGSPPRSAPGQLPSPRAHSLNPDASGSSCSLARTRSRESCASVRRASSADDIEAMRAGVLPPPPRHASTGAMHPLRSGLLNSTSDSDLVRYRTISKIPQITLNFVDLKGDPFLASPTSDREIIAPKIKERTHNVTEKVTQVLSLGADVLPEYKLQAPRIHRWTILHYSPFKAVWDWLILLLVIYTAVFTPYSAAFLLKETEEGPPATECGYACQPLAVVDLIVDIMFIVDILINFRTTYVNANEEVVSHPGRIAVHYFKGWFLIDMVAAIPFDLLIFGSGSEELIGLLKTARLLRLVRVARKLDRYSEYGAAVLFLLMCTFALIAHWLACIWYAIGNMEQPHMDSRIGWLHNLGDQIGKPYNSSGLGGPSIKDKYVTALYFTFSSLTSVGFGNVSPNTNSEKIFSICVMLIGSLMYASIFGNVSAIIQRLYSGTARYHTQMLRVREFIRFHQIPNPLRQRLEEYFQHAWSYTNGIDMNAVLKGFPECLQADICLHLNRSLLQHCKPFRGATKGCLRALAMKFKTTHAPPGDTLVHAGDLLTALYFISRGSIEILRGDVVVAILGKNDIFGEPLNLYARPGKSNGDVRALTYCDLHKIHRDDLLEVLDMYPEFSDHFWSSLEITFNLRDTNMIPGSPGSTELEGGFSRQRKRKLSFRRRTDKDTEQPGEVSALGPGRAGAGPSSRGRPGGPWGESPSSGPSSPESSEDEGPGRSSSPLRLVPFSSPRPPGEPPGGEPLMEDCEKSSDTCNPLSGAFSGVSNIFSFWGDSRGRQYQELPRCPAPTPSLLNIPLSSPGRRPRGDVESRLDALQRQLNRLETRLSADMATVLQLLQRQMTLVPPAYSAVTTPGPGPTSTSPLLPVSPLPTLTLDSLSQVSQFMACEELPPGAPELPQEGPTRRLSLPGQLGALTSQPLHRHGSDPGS

[3] = target: Melanin-concentrating hormone receptor 1 (Homo sapiens) (UniProt Q99705); assay: Displacement of [125I]-MCH (4 to 19) from human MCH1 receptor expressed in CHO cell membranes at 0.1 uM after 1 hr by liquid scintillation counting analysis relative to control

inhibition [1]	inhibition [3]	Compound	inhibition at 5 min, 10 µM [2]
83%	72%	Cc1c2cc(-n3ccc(OCc4ccc(Cl)cc4)cc3=O)ccc2nn1C	22.1%
55%	77%	Cc1c2cc(-n3ccc(OCc4csc(C(F)(F)F)c4)cc3=O)ccc2nn1C1CC1	–
78%	50%	Cc1c2cc(-n3ccc(OCc4csc(C(F)(F)F)n4)cc3=O)ccc2nn1C1CC1	–
70%	72%	Cc1c2cc(-n3ccc(OCc4ccc(F)cc4)cc3=O)ccc2nn1C1CC1	–
